Values joined by “and” are separate entries in the source; they are usually repeats but may differ in a detail not shown here. Identical values can stand only once.
Columns and labels:
[1] = Metabolic stability and enzyme kinetics in liver S9 (conversion to PF-00835231); details: for Km at 20 min / microsomal CLint: dog
[2] = as above; details: for microsomal CLint / Km at 20 min: rat
[3] = as above; details: for PF-00835231 formation rate: Human Liver S9 0.03 mg/ml, 20 min, R1-R3; for Km at 20 min / microsomal CLint: human
[4] = Cytotoxicity in MRC-5 cells; details: human
[5] = liver S9, pH 7.5, CL, unsaturable component, best-fit
[6] = liver S9, pH 7.5, CLintu (unbound CLint)
[7] = liver S9, pH 7.5, CLint,2, low affinity kinetic component

SMILES: COc1cccc2[nH]c(C(=O)N[C@@H](CC(C)C)C(=O)N[C@@H](C[C@@H]3CCNC3=O)C(=O)COP(=O)(O)O)cc12 [PF-07304814]
- Vmax ([1]; Dog, best-fit, Two enzyme: MM + Unsaturable): 213.7 pmol/min/mg
- Km at 20 min ([1]; dog liver S9, pH 7.5, KM): 2.91 µM
- Km at 20 min ([1]; dog liver S9, pH 7.5, Km, Dog, best-fit, Two enzyme: MM + Unsaturable): 2.91 µM
- microsomal CLint [1, 5]: 1.69 µL/min/mg
- microsomal CLint ([1]; liver S9, pH 7.5, CLint total, Dog, (vmax / KM) + CL): 75.2 µL/min/mg
- microsomal CLint ([1]; liver S9, pH 7.5, CLint,app): 75.2 µL/min/mg
- microsomal CLint [1, 6]: 84 µL/min/mg
- Vmax ([2]; Rat, best-fit, Two enzyme: MM + Unsaturable): 2188 pmol/min/mg
- microsomal CLint [2, 5]: 4.56 µL/min/mg
- microsomal CLint ([2]; liver S9, pH 7.5, CLint total, Rat, (vmax / KM) + CL): 45.5 µL/min/mg
- microsomal CLint [2, 7]: 4.56 µL/min/mg
- microsomal CLint ([2]; liver S9, pH 7.5, CLint,app): 45.5 µL/min/mg
- microsomal CLint [2, 6]: 51 µL/min/mg
- Km at 20 min ([2]; rat liver S9, pH 7.5, KM): 53.4 µM
- Km at 20 min ([2]; rat liver S9, pH 7.5, Km, Rat, best-fit, Two enzyme: MM + Unsaturable): 53.4 µM
- PF-00835231 formation rate ([3]; substrate 0.207 µM): 100 pmol/min/mg and 108 pmol/min/mg and 109 pmol/min/mg
- PF-00835231 formation rate ([3]; substrate 3.81 µM): 923 pmol/min/mg and 978 pmol/min/mg and 975 pmol/min/mg
- PF-00835231 formation rate ([3]; substrate 16.3 µM): 2081 pmol/min/mg and 1997 pmol/min/mg and 1964 pmol/min/mg
- PF-00835231 formation rate ([3]; substrate 33.8 µM): 2700 pmol/min/mg and 2483 pmol/min/mg and 2383 pmol/min/mg
- PF-00835231 formation rate ([3]; substrate 70.0 µM): 3450 pmol/min/mg and 3533 pmol/min/mg and 2817 pmol/min/mg
- Vmax ([3]; Human liver S9, best-fit, Two enzyme: MM + Unsaturable): 2313 pmol/min/mg
- Vmax ([3]; Human, best-fit, Two enzyme: MM + Unsaturable): 2313 pmol/min/mg
- Km at 20 min ([3]; human liver S9, pH 7.5, KM): 6.23 µM
- Km at 20 min ([3]; human liver S9, pH 7.5, Km, Human liver S9, best-fit, Two enzyme: MM + Unsaturable): 6.23 µM
- microsomal CLint ([3]; liver S9, pH 7.5, CLint total, Human liver S9, CLint total = (vmax / KM) + CL): 381 µL/min/mg
- microsomal CLint ([3]; liver S9, pH 7.5, CLint total, Human, (vmax / KM) + CL): 381 µL/min/mg
- microsomal CLint [3, 7]: 9.96 µL/min/mg
- microsomal CLint ([3]; liver S9, pH 7.5, CLint,app): 381 µL/min/mg
- microsomal CLint [3, 6]: 428 µL/min/mg
- microsomal CLint ([3]; liver S9, pH 7.5, Human liver S9 Clint, clearance input): 381 µL/min/mg
- CC50 at 5 days [4]: > 100 µM
- CC50 at 5 days ([4]; MRC-5 cells): > 100 µM
- CC50 at 5 days ([4]; MRC-5 cells, with CP-100356 (efflux inhibitor) 0.5 µM): > 100 µM

Source: publication PMC8523698, “Preclinical characterization of an intravenous coronavirus 3CL protease inhibitor for the potential treatment of COVID19” (Nature Communications, 2021)
